Several values for one entry are separate records, joined by “and”; a condition that tells them apart may be missing. Equal values may be shown once.
Key:
[1] = biological target: T1, hSGLT2 S74A (Homo sapiens, UniProt P31639, S74A); type: binding; details: S74A
T1 construct: expressed in transfected cells; host or cells: Expi293 cells, crude membrane fraction
From the text: (§1) hSGLT2 complementary DNA and human MAP17 cDNA were synthesized and codon-optimized for expression in human cell lines. Both cDNAs were cloned into the pcDNA3.4 vector. The hSGLT2 sequence was fused with an N-terminal signal sequence from human trypsinogen 1, a His10 tag, and sfGFP, followed by a human rhinovirus 3C protease (HRV3C protease) recognition site. Point mutations were introduced into this construct using site-directed mutagenesis. These plasmids were utilized for all experimental procedures conducted in this study.
To examine the inhibition of binding to the crude membrane, mammalian Expi293 cells were co-transfected with the hMAP17 and hSGLT2 plasmids, as described. The cells were collected and disrupted by sonication in a hypotonic buffer (50 mM HEPES–NaOH (pH 7.5), 10 mM KCl and protease inhibitor cocktail) or Na^+-free hypotonic buffer (50 mM Tris–HCl (pH 7.5), 10 mM KCl and protease inhibitor cocktail). The cell debris were removed by centrifugation (2,000g, 5 min, 4 °C). The membrane fraction was collected by ultracentrifugation (112,000g, 30 min, 4 °C) and stored at −80 °C before use. […] The extract solution from the filter plate was diluted with water containing candesartan as an internal standard, and the SGLT2 inhibitor concentration was quantified via LC–MS/MS.
Nonspecific binding was measured using the crude membrane of nontransfected Expi293 cells. Specific binding was calculated by subtracting nonspecific binding from the binding of hSGLT2-expressing cells. Specific binding was normalized to hSGLT2 protein expression levels, measured via FSEC. The equilibrium dissociation constant (Kd) and maximum number of binding sites (Bmax) were calculated via nonlinear regression in GraphPad Prism 8.4.3. […]
The concentrations of the extract solution from the filter plate and of the cell lysate were quantified using a tandem mass spectrometry QTRAP6500 System (SCIEX) coupled with an ACQUITY UPLC system (Waters) using the internal standard method. […]

[2] = biological target: T2, hSGLT2 F98A (Homo sapiens, UniProt P31639, F98A); experiment: α-MG uptake in HEK293 cells, F98A mutant; type: cell-based; parameters: expressed in transfected cells
T2 sequence (P31639 1-672 F98A): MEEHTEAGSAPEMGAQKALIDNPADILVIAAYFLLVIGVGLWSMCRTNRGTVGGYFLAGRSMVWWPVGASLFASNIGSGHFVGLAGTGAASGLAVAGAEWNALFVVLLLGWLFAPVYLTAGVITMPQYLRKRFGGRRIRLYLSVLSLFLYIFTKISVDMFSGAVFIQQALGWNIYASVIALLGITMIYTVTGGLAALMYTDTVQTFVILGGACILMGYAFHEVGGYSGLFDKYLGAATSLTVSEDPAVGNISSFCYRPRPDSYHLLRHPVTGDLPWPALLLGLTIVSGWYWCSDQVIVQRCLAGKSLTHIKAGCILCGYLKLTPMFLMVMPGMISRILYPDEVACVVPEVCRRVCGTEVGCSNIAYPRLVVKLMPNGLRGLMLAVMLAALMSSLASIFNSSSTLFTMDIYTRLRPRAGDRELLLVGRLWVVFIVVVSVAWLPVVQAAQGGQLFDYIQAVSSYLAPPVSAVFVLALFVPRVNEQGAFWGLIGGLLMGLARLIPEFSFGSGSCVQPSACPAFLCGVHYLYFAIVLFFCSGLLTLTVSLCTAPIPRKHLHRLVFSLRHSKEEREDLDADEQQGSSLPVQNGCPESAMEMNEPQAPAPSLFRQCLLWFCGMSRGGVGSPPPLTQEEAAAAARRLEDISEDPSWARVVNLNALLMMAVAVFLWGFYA
T2 sequence (Q13113 1-114 partner): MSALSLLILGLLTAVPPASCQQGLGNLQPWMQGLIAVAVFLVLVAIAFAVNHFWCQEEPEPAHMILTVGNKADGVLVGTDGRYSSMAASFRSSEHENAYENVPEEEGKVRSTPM
From the text: as §1
HEK293 cells (ECACC 85120602) were maintained in Dulbecco’s modified Eagle medium (Gibco) supplemented with 10% fetal bovine serum (Thermo Scientific), 2 mM L-glutamine, 100 U ml^−1 benzylpenicillin and 100 µg ml^−1 streptomycin at 37 °C in a humidified atmosphere (5% CO2 in air). HEK293 cells were seeded at 1.0 × 10^5 cells per well in poly-L-lysine coated 24-well plates. The cells in each well were transiently transfected with 0.25 µg hMAP17 plasmid and 0.50 µg hSGLT2 plasmid using Lipofectamine 2000 (Life Technologies) and cultured for 48 h. […] After preincubation, uptake was initiated by replacing the preincubation buffer with extracellular fluid buffer containing 500 μM α-MG in the absence or presence of inhibitors. Uptake was completed by removing the uptake buffer and washing with ice-cold buffer three times, followed by solubilization in 1 N NaOH at room temperature.
Cell lysates were deproteinized by adding acetonitrile containing candesartan as the internal standard. The α-MG concentration was quantified via liquid chromatography–tandem mass spectrometry (LC–MS/MS) using the internal standard method.
Cellular protein content was determined using a bicinchoninic acid protein assay kit (Thermo Fisher Scientific). The uptake of α-MG was expressed as the ratio of concentration in the cells (in pmol per mg protein) to concentration in the medium (in pmol μl^−1); this is known as the cell-to-medium ratio (in μl per mg protein).
In the inhibition study, the cell-to-medium ratio of cells transfected with the empty vector was used as the background. The specific α-MG uptake was calculated by subtracting this background from the total cell-to-medium ratio and normalized to the uptake achieved without the inhibitor. IC50 was calculated via nonlinear regression using GraphPad Prism 8.4.3.
The concentrations of the extract solution from the filter plate and of the cell lysate were quantified using a tandem mass spectrometry QTRAP6500 System (SCIEX) coupled with an ACQUITY UPLC system (Waters) using the internal standard method. Mobile phases A and B used 10 mM of ammonium bicarbonate and acetonitrile, respectively.

T1 sequence (P31639 whole entry S74A, one chain of several): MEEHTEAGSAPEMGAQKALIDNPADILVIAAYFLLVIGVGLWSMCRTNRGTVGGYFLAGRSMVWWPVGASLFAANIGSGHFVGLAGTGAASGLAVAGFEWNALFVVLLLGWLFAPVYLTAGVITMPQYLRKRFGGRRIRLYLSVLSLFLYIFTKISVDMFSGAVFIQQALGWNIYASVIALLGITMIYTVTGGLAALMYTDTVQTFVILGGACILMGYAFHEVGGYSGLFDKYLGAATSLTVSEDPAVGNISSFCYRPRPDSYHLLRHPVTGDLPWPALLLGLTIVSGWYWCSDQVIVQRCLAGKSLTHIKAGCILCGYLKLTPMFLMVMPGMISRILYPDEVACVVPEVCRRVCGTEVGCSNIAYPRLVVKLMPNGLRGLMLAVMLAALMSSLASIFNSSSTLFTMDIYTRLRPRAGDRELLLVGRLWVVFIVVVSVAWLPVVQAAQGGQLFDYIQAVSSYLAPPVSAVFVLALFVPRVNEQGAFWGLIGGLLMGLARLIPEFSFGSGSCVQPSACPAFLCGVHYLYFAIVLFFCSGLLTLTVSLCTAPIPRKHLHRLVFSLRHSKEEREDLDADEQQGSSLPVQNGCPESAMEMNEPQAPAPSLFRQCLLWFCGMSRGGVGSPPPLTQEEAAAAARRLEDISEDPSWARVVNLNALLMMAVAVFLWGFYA

Question: Which results are given for O=C(CCc1ccc(O)cc1)c1c(O)cc(O)cc1O[C@@H]1O[C@H](CO)[C@@H](O)[C@H](O)[C@H]1O [Phlorizin]?
Answer: Bmax1 ([1]; phlorizin, mean ± SEM n=3): 1.16 ± 0.07 pmol/mg-protein; remaining activity at 0.3 µM ([2]; HEK293, Phlorizin 300 nM, read-out: α-MG uptake (% of control)): 80.5%; α-MG uptake (% of control) ([2]; Phlorizin 0.3 nM): 115.8 % of control and 94.2 % of control and 155.8 % of control; α-MG uptake (% of control) ([2]; Phlorizin 3 nM): 76.0 % of control and 88.8 % of control and 126.1 % of control; α-MG uptake (% of control) ([2]; Phlorizin 10 nM): 79.6 % of control and 104.3 % of control and 76.0 % of control; α-MG uptake (% of control) ([2]; Phlorizin 30 nM): 103.1 % of control and 103.4 % of control and 128.4 % of control; α-MG uptake (% of control) ([2]; Phlorizin 100 nM): 135.2 % of control and 89.8 % of control and 99.6 % of control; α-MG uptake (% of control) ([2]; Phlorizin 300 nM): 69.6 % of control and 82.5 % of control

Question: How did the “Canagliflozin binding (% of WT)” value ([1]; 30 nM canagliflozin, replicates) turn out when Cc1ccc([C@@H]2O[C@H](CO)[C@@H](O)[C@H](O)[C@H]2O)cc1Cc1ccc(-c2ccc(F)cc2)s1 [Canagliflozin] was run?
Answer: 75.2559 % of WT and 78.5839 % of WT and 93.2268 % of WT

Question: How did the α-MG uptake ([2]; Fig. 3h) turn out when CO[C@H]1O[C@H](CO)[C@@H](O)[C@H](O)[C@H]1O [α-MG, α-methyl-D-glucopyranoside] was run?
Answer: 55.68 μL/mg-protein and 75.98 μL/mg-protein and 85.61 μL/mg-protein

From publication PMC10803289, “Transport and inhibition mechanism of the human SGLT2–MAP17 glucose transporter” (Nature Structural & Molecular Biology, 2023)
